Legend:
Type in all cases: in vivo
[1] = tested on: Echinochloa crus-galli var. crus-galli; assay: Test Example 5: herbicidal effect by foliage application, plastic box (symbol H); settings: 320 g/ha, 3 weeks after application
In short: (§1)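 Emulsion formulation, diluted with water to the intended rate, was applied uniformly to leaves by small sprayer. Recipients were 14-day greenhouse-grown seedlings (25° C. to 30° C.). Assessment followed at 3 weeks.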

Monochoria vaginalis = assay: Test Example 2: herbicidal activity, application during weed generation in submerged conditions (symbol C); settings: Table 23; application herbicide amount 320 g/ha; grade 0-5 by criteria of Test Example 1
In short: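 Flooded-soil post-emergence test: emulsion of compound, water-diluted to target rate, applied to paddy water surface at 1–2 leaf stage of mixed-sown weeds (alluvial soil, 4 cm water, 25–30° C. greenhouse); visual rating 3 weeks after application.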

Stellaria media = assay: Test Example 5: herbicidal effect by foliage application, plastic box (symbol P); settings: 320 g/ha, 3 weeks after application
In short: as §1

Abutilon theophrasti = assay: Test Example 5: herbicidal effect by foliage application, plastic box (symbol M); settings: 320 g/ha, 3 weeks after application
In short: as §1

[2] = tested on: Echinochloa crus-galli var. crus-galli; assay: Test Example 4: herbicidal effect by soil treatment (symbol H)
In short: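 Seeds were sown in sterilized diluvial soil, covered with about 1.5 cm of soil, and the soil surface was sprayed with a water-diluted emulsion of the compound at a predetermined rate. Plants grew in a greenhouse at 25° C. to 30° C.; effects were scored visually 3 weeks after application.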

[3] = application herbicide amount 320 g/ha

Row | Compound | H: Echinochloa crus-galli var. crus-galli, herbicidal effect (criteria 0-5) [1] | Herbicidal effect grade, C: Monochoria vaginalis (Monochoria vaginalis) | P: Stellaria media, herbicidal effect (criteria 0-5) (Stellaria media) | M: Abutilon theophrasti, herbicidal effect (criteria 0-5) (Abutilon theophrasti) | H: Echinochloa crus-galli var. crus-galli, herbicidal effect grade ([2]; 320 g/ha) | H: Echinochloa crus-galli var. crus-galli, herbicidal effect grade [1] | P: Stellaria media, herbicidal effect grade (Stellaria media) | M: Abutilon theophrasti, herbicidal effect grade (Abutilon theophrasti) | Herbicidal effect grade, H: Echinochloa crus-galli var. crus-galli [2, 3] | H: Echinochloa crus-galli var. crus-galli, herbicidal effect grade [2, 3]
1 | C=C(C)CN(CC)C(=O)OC1=C(c2c(C)cc(C)cc2C)C(=O)C(CC(C)=NOC)C1 (stereo not shown) [1-130] | 5 (Herbicidal ratio of 90% or more (almost completely withered)) | 0 (Herbicidal ratio of 5% or lower (almost no effect)) | 0 (Herbicidal ratio of 5% or lower (almost no effect)) | 0 (Herbicidal ratio of 5% or lower (almost no effect)) | 0 (Herbicidal ratio of 5% or lower (almost no effect)) | – | – | – | – | –
2 | CON=C(C)CC1CC(OC(=O)c2nsc(Cl)c2Cl)=C(c2c(C)cc(C)cc2C)C1=O (stereo not shown) [1-099] | 5 (Herbicidal ratio of 90% or more (almost completely withered)) | 2 (Herbicidal ratio of 20% or higher and lower than 40%) | 3 (Herbicidal ratio of 40% or higher and lower than 70%) | 4 (Herbicidal ratio of 70% or higher and lower than 90%) | 5 (Herbicidal ratio of 90% or more (almost completely withered)) | – | – | – | – | –
3 | COCCON=C(C)CC1CC(O)=C(c2c(C)cc(Br)cc2C)C1=O (stereo not shown) [9-017] | – | 0 (Herbicidal ratio of 5% or lower (almost no effect)) | – | – | – | 5 (Herbicidal ratio of 90% or more (almost completely withered)) | 0 (Herbicidal ratio of 5% or lower (almost no effect)) | 0 (Herbicidal ratio of 5% or lower (almost no effect)) | 0 (Herbicidal ratio of 5% or lower (almost no effect)) | –
4 | COCCON=C(CC1CC(O)=C(c2c(C)cc(-n3cc(Cl)cn3)cc2C)C1=O)C1CC1 (stereo not shown) [9-020] | – | 0 (Herbicidal ratio of 5% or lower (almost no effect)) | – | – | – | 5 (Herbicidal ratio of 90% or more (almost completely withered)) | 3 (Herbicidal ratio of 40% or higher and lower than 70%) | 4 (Herbicidal ratio of 70% or higher and lower than 90%) | 0 (Herbicidal ratio of 5% or lower (almost no effect)) | –
5 | COCCON=C(CC1CC(O)=C(c2c(C)cc(-n3cc(Cl)cn3)cc2C)C1=O)C(C)C (stereo not shown) [9-022] | – | 0 (Herbicidal ratio of 5% or lower (almost no effect)) | – | – | – | 5 (Herbicidal ratio of 90% or more (almost completely withered)) | 0 (Herbicidal ratio of 5% or lower (almost no effect)) | 0 (Herbicidal ratio of 5% or lower (almost no effect)) | 5 (Herbicidal ratio of 90% or more (almost completely withered)) | –
6 | CC(CC1CC(OC(=O)COc2ccccc2)=C(c2c(C)cc(-c3ccc(Cl)cc3)cc2C)C1=O)=NOCC(F)(F)F (mixture of isomers) [9-027] | – | 0 (Herbicidal ratio of 5% or lower (almost no effect)) | – | – | – | 5 (Herbicidal ratio of 90% or more (almost completely withered)) | 3 (Herbicidal ratio of 40% or higher and lower than 70%) | 0 (Herbicidal ratio of 5% or lower (almost no effect)) | 5 (Herbicidal ratio of 90% or more (almost completely withered)) | –
7 | CON=C(CC1CC(O)=C(c2c(C)cc(C)cc2OC)C1=O)C1CC1 (mixture of isomers) [13-002] | – | 2 (Herbicidal ratio of 20% or higher and lower than 40%) | – | – | – | 5 (Herbicidal ratio of 90% or more (almost completely withered)) | 3 (Herbicidal ratio of 40% or higher and lower than 70%) | 2 (Herbicidal ratio of 20% or higher and lower than 40%) | – | 5 (Herbicidal ratio of 90% or more (almost completely withered))
8 | CC(CC1CC(O)=C(c2c(C)cc(C)cc2C)C1=O)=NOCC1OCCO1 (stereo not shown) [1-111] | 5 (Herbicidal ratio of 90% or more (almost completely withered)) | 0 (Herbicidal ratio of 5% or lower (almost no effect)) | 3 (Herbicidal ratio of 40% or higher and lower than 70%) | 1 (Herbicidal ratio of 5% or higher and lower than 20%) | 5 (Herbicidal ratio of 90% or more (almost completely withered)) | – | – | – | – | –
9 | CON=C(C)CC1CC(OC(=O)N2CCOCC2)=C(c2c(C)cc(C)cc2C)C1=O (stereo not shown) [1-104] | 5 (Herbicidal ratio of 90% or more (almost completely withered)) | 0 (Herbicidal ratio of 5% or lower (almost no effect)) | 1 (Herbicidal ratio of 5% or higher and lower than 20%) | 3 (Herbicidal ratio of 40% or higher and lower than 70%) | 5 (Herbicidal ratio of 90% or more (almost completely withered)) | – | – | – | – | –
10 | CC(CC1CC(O)=C(c2c(C)cc(C)cc2C)C1=O)=NOCc1ccccc1Cl (stereo not shown) [1-113] | 4 (Herbicidal ratio of 70% or higher and lower than 90%) | 0 (Herbicidal ratio of 5% or lower (almost no effect)) | 3 (Herbicidal ratio of 40% or higher and lower than 70%) | 1 (Herbicidal ratio of 5% or higher and lower than 20%) | 0 (Herbicidal ratio of 5% or lower (almost no effect)) | – | – | – | – | –
11 | COc1ccc(CON=C(C)CC2CC(O)=C(c3c(C)cc(C)cc3C)C2=O)cc1 (stereo not shown) [1-112] | 5 (Herbicidal ratio of 90% or more (almost completely withered)) | 4 (Herbicidal ratio of 70% or higher and lower than 90%) | 1 (Herbicidal ratio of 5% or higher and lower than 20%) | 1 (Herbicidal ratio of 5% or higher and lower than 20%) | 4 (Herbicidal ratio of 70% or higher and lower than 90%) | – | – | – | – | –

— patent US11000033B2, “Ketone or oxime compound, and herbicide” (NISSAN CHEMICAL CORPORATION, priority 2014, dated 2021)
